Measurements as given in article PMC11567856, “A novel peptide‐based tau aggregation inhibitor as a potential therapeutic for Alzheimer's disease and other tauopathies” (Alzheimer's & Dementia, 2024).
Where a SMILES comes first, the peptide text is derived from it.

Tests used:
[1] = ThT fluorescence, self-assembly of peptide inhibitors without Tau; type: physicochemical; settings: ThT end-point 24 h, 37°C; 20 µM peptide without Tau, 5 µM heparin, 30 mM Tris, 1 mM DTT, 15 µM ThT, pH 7.4; triplicate
Protocol: (§1) Fluorescence was measured (λex = 442 nm, λem = 483 nm), and data were normalized. […] The addition of inhibitor to the growth phase was controlled by adding an equivalent volume of buffer alone.
(§2) Experiments were conducted in triplicate and error bars were reported as standard deviation. Statistical analysis: p > 0.05, *p ≤ 0.05, **p ≤ 0.01, ***p ≤ 0.001.

Tau^Δ1‐250 = molecular target: T1, Tau^Δ1‐250 (Homo sapiens, UniProt P10636); test: ThT fluorescence, heparin-induced aggregation of Tau^Δ1‐250; type: biochemical; settings: 5 µM heparin, pH 7.4, triplicate; for effect on Tau^Δ1‐250 aggregation (in words): ThT end-point 24 h, 20 µM Tau^Δ1‐250, 20 µM peptide
T1 construct: Tau^Δ1‐250 (an aggregate prone truncated version of full‐length Tau); made in house; host or cells: E. coli BL21(DE3)
Protocol: as §1, §2

Tau^2N4R = molecular target: T2, Tau^2N4R (Homo sapiens, UniProt P10636); test: ThT fluorescence end-point, heparin-induced aggregation of Tau^2N4R; type: biochemical; settings: ThT end-point 216 h (9 days); Tau^2N4R, 20 µM peptide, 10 µM heparin, pH 7.4
T2 construct: and full‐length Tau (Tau^2N4R); made in house; host or cells: E. coli BL21
Protocol: as §1
FIGURE 3 Lead peptide RI‐AG03 dose‐response and target specificity. […] (C) Concentration‐dependent inhibition of by Tau^Δ1‐250 by RI‐AG03. […] (E) Concentration‐dependent inhibition of by Tau^2N4R by RI‐AG03. […] (F) log10 scatter graph of Tau^2N4R inhibition by RI‐AG03 employing a curve fitting algorithm to calculate the IC50 at 5 µM. Experiments were conducted in triplicate and error bars were reported as standard deviation. One factor repeated measures ANOVA + Tukey post hoc statistical analysis: p > 0.05, *p ≤ 0.05, **p ≤ 0.01, ***p ≤ 0.001.

[2] = tested on: Tau repeat domain (RD) with the P301S mutation fused to mCer and mClo, HEK293 biosensor cells; test: Tau fibril seeding in FRET Tau biosensor cells; type: cell-based, human; settings: biosensor cells, fibrils preincubated with 0–500 µM peptide; Figure 5C
Protocol: Tau biosensor cells culture: RD P301S Tau biosensor cells have been previously described,[45] and in this case v2L cells were used. Cells were cultured in 10 cm dishes containing Dulbecco's Modified Eagle's Medium (DMEM) (Gibco) enriched with 10% FBS (HyClone), 1% penicillin/streptomycin (Gibco), and 1% GlutaMAX (Gibco) at 37°C with 5% CO2 in a humidified incubator.
5 µM of tau fibrils (monomer equivalent) were incubated in PBS with peptide RI‐AG03 or scramble (0–500 µM) at 300 rpm agitation at 4°C for 16 h. The reaction was stopped by flash freezing in liquid nitrogen and stored at –20°C. Tau biosensor cells were plated at a density of 30,000 cells in 120 µL of media per well in a 96‐well plate. After 18 h, using Lipofectamine 2000 cells were transduced with 10 nM of treated fibrils that had been briefly sonicated for 30 s at 65 Amp (QSonica). Lipofectamine complexes were formed in 30 µL consisting of 14.17 µL Opti‐MEM (Gibco), 15 µL of treated fibrils diluted in PBS, and 0.83 µL lipofectamine 2000 (Invitrogen), bringing the total volume to 150 µL. […] Aggregates in Tau biosensors (10,000 minimum) were quantified by FRET flow cytometry in a LSRFortessa SORP (BD Biosciences). To detect the cerulean signal, cells were excited with a 405 nm laser, and fluorescence was captured at […]. For clover signal, cells were excited with a 488 nm laser and fluorescence was detected at 525/50 nm. Flow cytometry data were analyzed using a gating strategy previously described.[45], [47] The percentage of cells with positive FRET signal were quantified. Each condition was analyzed in quadruplicate. […]
To test RI‐AG03 efficacy in mammalian cells, we utilized a fluorescence resonance energy transfer (FRET) biosensor HEK293 cell line that stably expresses the Tau repeat domain (RD) with the P301S mutation fused to mCer and mClo. These cells[45] or prior generations[71] have been used extensively to quantify Tau seeding activity and measure intracellular aggregation.[71] […] Seeded aggregation was quantified by the percentage of FRET positivity.

T1 sequence (P10636 568-758, stated change not applied): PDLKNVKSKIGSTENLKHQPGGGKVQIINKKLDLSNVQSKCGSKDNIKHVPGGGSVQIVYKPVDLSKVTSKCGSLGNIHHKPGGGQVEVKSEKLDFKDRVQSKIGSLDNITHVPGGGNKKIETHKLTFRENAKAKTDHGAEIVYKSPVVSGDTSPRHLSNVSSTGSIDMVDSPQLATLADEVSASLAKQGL
T2 sequence (P10636 1-441 isoform P10636-8): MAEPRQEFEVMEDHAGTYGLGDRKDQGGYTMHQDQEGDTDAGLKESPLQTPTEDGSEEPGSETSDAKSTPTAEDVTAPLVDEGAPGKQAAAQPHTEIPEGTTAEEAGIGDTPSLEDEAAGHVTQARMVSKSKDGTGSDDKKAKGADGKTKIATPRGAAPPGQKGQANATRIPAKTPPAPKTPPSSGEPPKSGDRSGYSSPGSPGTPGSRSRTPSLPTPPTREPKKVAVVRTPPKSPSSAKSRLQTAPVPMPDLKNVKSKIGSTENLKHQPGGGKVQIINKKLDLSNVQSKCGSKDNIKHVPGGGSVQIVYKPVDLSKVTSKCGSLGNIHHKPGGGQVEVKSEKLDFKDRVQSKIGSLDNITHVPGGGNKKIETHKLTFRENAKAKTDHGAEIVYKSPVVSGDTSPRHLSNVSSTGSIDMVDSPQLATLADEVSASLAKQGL

Compound | self-aggregation of peptide (in words) [1] | effect on Tau^Δ1‐250 aggregation (in words) (Tau^Δ1‐250) | other results
CC[C@H](C)[C@H](NC(=O)[C@H](CCC(N)=O)NC(=O)[C@@H](NC(=O)CNC(=O)[C@H](CCCNC(=N)N)NC(C)=O)C(C)C)C(=O)N[C@H](C(=O)N[C@@H](CC(N)=O)C(=O)N[C@@H](CCCCN)C(=O)NCC(=O)N[C@@H](CCCNC(=N)N)C(N)=O)[C@@H](C)CC [AG01] (Ac-RGVQIINKGR-NH2) | self‐aggregated |  | 
CC[C@H](C)[C@H](NC(=O)[C@H](CCC(N)=O)NC(=O)[C@@H](NC(=O)CNC(=O)[C@H](CCCNC(=N)N)NC(C)=O)C(C)C)C(=O)N[C@H](C(=O)N[C@@H](Cc1ccc(O)cc1)C(=O)N[C@@H](CCCCN)C(=O)N1CCC[C@H]1C(=O)NCC(=O)N[C@@H](CCCNC(=N)N)C(=O)N[C@@H](CCCNC(=N)N)C(=O)N[C@@H](CCCNC(=N)N)C(=O)N[C@@H](CCCNC(=N)N)C(N)=O)C(C)C [AG02PR5] (Ac-RGVQIVYKPGRRRR-NH2) |  | no additional benefit | 
CC[C@H](C)[C@H](NC(=O)[C@H](CCC(N)=O)NC(=O)[C@@H](NC(=O)CNC(=O)[C@H](CCCNC(=N)N)NC(C)=O)C(C)C)C(=O)N[C@H](C(=O)N[C@@H](Cc1ccc(O)cc1)C(=O)N[C@@H](CCCCN)C(=O)NCC(=O)N[C@@H](CCCNC(=N)N)C(=O)N[C@@H](Cc1ccc(O)cc1)C(=O)NCC(=O)N[C@@H](CCCNC(=N)N)C(=O)N[C@@H](CCCCN)C(=O)N[C@@H](CCCCN)C(=O)N[C@@H](CCCNC(=N)N)C(=O)N[C@@H](CCCNC(=N)N)C(=O)N[C@@H](CCC(N)=O)C(=O)N[C@@H](CCCNC(=N)N)C(=O)N[C@@H](CCCNC(=N)N)C(=O)N[C@@H](CCCNC(=N)N)C(N)=O)C(C)C [AG02TAT] (Ac-RGVQIVYKGRYGRKKRRQRRR-NH2) | greater self‐association into β‐sheets than all other AG02‐derived peptides | no significant additional inhibitory benefits | 
CC(=O)NCCCC[C@H](NC(=O)[C@H](CCC(N)=O)NC(=O)[C@@H](NC(=O)CNC(=O)[C@H](CCCNC(=N)N)NC(C)=O)C(C)C)C(=O)N[C@H](C(=O)N[C@@H](Cc1ccc(O)cc1)C(=O)N[C@@H](CCCCN)C(=O)NCC(=O)N[C@@H](CCCNC(=N)N)C(N)=O)C(C)C [AG02∆I] (Ac-RGVQK(Ac)VYKGR-NH2) | demonstrated self‐aggregation ability |  | 
CC[C@H](C)[C@H](NC(=O)[C@H](CCC(N)=O)NC(=O)[C@@H](NC(=O)CNC(=O)[C@H](CCCNC(=N)N)NC(C)=O)C(C)C)C(=O)N[C@@H](CCCCNC(C)=O)C(=O)N[C@@H](Cc1ccc(O)cc1)C(=O)N[C@@H](CCCCN)C(=O)NCC(=O)N[C@@H](CCCNC(=N)N)C(N)=O [AG02∆V] (Ac-RGVQIK(Ac)YKGR-NH2) | demonstrated a tendency for self‐aggregation, though to a smaller extent |  | 
CC[C@H](C)[C@H](NC(=O)[C@H](CCC(N)=O)NC(=O)[C@@H](NC(=O)CNC(=O)[C@H](CCCNC(=N)N)NC(C)=O)C(C)C)C(=O)N[C@@H](CCCCNC(C)=O)C(=O)N[C@@H](Cc1ccc(O)cc1)C(=O)N[C@@H](CCCCN)C(=O)N1CCC[C@H]1C(=O)NCC(=O)N[C@@H](CCCNC(=N)N)C(=O)N[C@@H](CCCNC(=N)N)C(=O)N[C@@H](CCCNC(=N)N)C(=O)N[C@@H](CCCNC(=N)N)C(=O)N[C@@H](CCCNC(=N)N)C(=O)N[C@@H](CCCNC(=N)N)C(=O)N[C@@H](CCCNC(=N)N)C(=O)N[C@@H](CCCNC(=N)N)C(N)=O [AG03] (Ac-RGVQIK(Ac)YKPGRRRRRRRR-NH2) | minimal self‐aggregation |  | inhibition of Tau^Δ1‐250 aggregation (Tau^Δ1‐250; ThT end-point after 24 h, 37°C, 20 µM Tau^Δ1‐250, 20 µM peptide (equimolar), 30 mM Tris, 1 mM DTT, 15 µM ThT): ~53%
CC[C@H](C)[C@H](NC(=O)[C@H](CCC(N)=O)NC(=O)[C@@H](NC(=O)CNC(=O)[C@H](CCCNC(=N)N)NC(=O)[C@H](CCCNC(=N)N)NC(=O)[C@H](CCCNC(=N)N)NC(=O)[C@H](CCCNC(=N)N)NC(C)=O)C(C)C)C(=O)N[C@H](C(=O)N[C@@H](Cc1ccc(O)cc1)C(=O)N[C@@H](CCCCN)C(=O)NCC(=O)N[C@@H](CCCNC(=N)N)C(N)=O)C(C)C [AGR502] (Ac-RRRRGVQIVYKGR-NH2) |  | did not affect peptide inhibitory action | 
CC(=O)N[C@@H](CCCNC(=N)N)C(=O)N[C@@H](CCCNC(=N)N)C(=O)N[C@@H](CCCNC(=N)N)C(=O)N[C@@H](CCCNC(=N)N)C(=O)N[C@@H](CCCNC(=N)N)C(=O)N[C@@H](CCCNC(=N)N)C(=O)N[C@@H](CCCNC(=N)N)C(=O)N[C@@H](CCCNC(=N)N)C(=O)N[C@@H](CCCNC(=N)N)C(N)=O [Poly‐arginine, reference compound] |  | no effect on aggregation | 
CC[C@H](C)[C@H](NC(=O)[C@H](CCCCN)NC(=O)[C@@H]1CCCN1C(=O)[C@H](CCC(N)=O)NC(=O)CNC(=O)[C@H](CCCNC(=N)N)NC(C)=O)C(=O)N[C@@H](CCCCNC(C)=O)C(=O)N[C@@H](Cc1ccc(O)cc1)C(=O)N[C@H](C(=O)NCC(=O)N[C@@H](CCCNC(=N)N)C(=O)N[C@@H](CCCNC(=N)N)C(=O)N[C@@H](CCCNC(=N)N)C(=O)N[C@@H](CCCNC(=N)N)C(=O)N[C@@H](CCCNC(=N)N)C(=O)N[C@@H](CCCNC(=N)N)C(=O)N[C@@H](CCCNC(=N)N)C(=O)N[C@@H](CCCNC(=N)N)C(N)=O)C(C)C [Scramble AG03, reference compound] (Ac-RGQPKIK(Ac)YVGRRRRRRRR-NH2) |  | no effect on aggregation | effect on Tau^2N4R aggregation (in words) (Tau^2N4R): did not suppress aggregation; concentrations with peptide‐induced toxicity (decrease in FRET positivity) [2]: above 100 µM
